The nature of assay [1]: Ferric reducing antioxidant power (FRAP). As to the method: According to the previously published methods, acetate buffer (pH 3.6), FeCl3 solution (20 mM), and 10 m TPTZ solution (prepared in 40 mM HCl) were mixed in a ratio of 10:1:1 to generate the FRAP working solution. Then, the working solution was warmed to 37 °C before being used. The diluted sample, blank, or standard solution (100 µL) was mixed with the warm-up working solution (900 µL) and incubated for 40 min in a dry bath at 37 °C. The absorbance at 593 nm was measured using an ELISA reader. The standard curve was linear from 0 to 100 mM Trolox, and the data were expressed as mM TE/g dry weight.

Assay [2] in a line: Radical scavenging activity of DPPH. As to conditions: for EC50: isolated components (Table 4), read-out: SC50 DPPH. As to the method: According to the method reported in [48], a DPPH radical solution (400 μM) was prepared in EtOH. The tested samples were diluted to the desired concentrations with EtOH. In a 96-well plate, diluted tested sample solution (100 μL) was mixed with 100 μL of the DPPH radical solution (200 μM). The mixture was allowed to react at room temperature for 30 min in the dark. After the reaction, the absorbance at 520 nm was measured using an ELISA reader (TECAN Sunrise, Männedorf, Schweiz). The scavenging activity was calculated using the following equation. Scavenging rate (%) = (Acontrol − Asample)/Acontrol × 100% where Acontrol was the absorbance of the control and Asample was that of the tested sample.

Assay [3] is described as follows: Radical scavenging activity of ABTS. To be noted: for EC50: isolated components (Table 4), read-out: SC50 ABTS. As to the method: According to the method reported in [49], ABTS solution (28 mM) was mixed with potassium permanganate solution (9.6 mM) in an equal ratio (v/v = 1:1) and allowed to react at room temperature in the dark for 16 h to generate the ABTS radical solution. The ABTS radical solution was then diluted with EtOH until the absorbance reached 0.70 ± 0.02 at 740 nm. The tested samples were subsequently diluted to the desired concentrations with EtOH. In a 96-well plate, the ABTS radical solution (190 μL) was mixed with the sample solution (10 μL) and was allowed to react at room temperature for 6 min in the dark. The absorbance was then measured at 740 nm using an ELISA reader. The scavenging activity was calculated using the following equation. Scavenging rate (%) = (Acontrol − Asample)/Acontrol × 100% where Acontrol was the absorbance of the control and Asample was that of the tested sample.

The target in assay [4] is T1, acetylcholinesterase (AChE) (Electrophorus electricus, UniProt O42275).
T1 construct: purchased Sigma-Aldrich
Description: biochemical. Here is the method:
The AChE inhibition was carried out based on the previous method. The sodium phosphate buffer (pH 8.0, 0.1 M, 140 μL), DTNB (10 μL), tested sample (20 μL), and AChE solution (15 μL) were mixed in a 96-well plate. After incubating at room temperature for 10 min, the absorbance was measured at 405 nm. The inhibitory effect was calculated by the following equation. Acetylcholinesterase inhibition (%) = (Acontrol − Asample)/Acontrol × 100% where Asample and Acontrol represent the absorbance values of the tested sample and control, respectively.

Assay [5] can be described thus: Radical scavenging activity of superoxide. To be noted: for EC50: isolated components (Table 4), read-out: SC50 Superoxide. Here is the method:
According to a previously reported procedure, the superoxide radical solution was prepared in Tris-HCl buffer (16 mM, pH 8.0) containing 300 µM NBT (50 µL), 120 µM PMS (50 µL), and tested sample solution (50 µL). […] The absorbance at 560 nm was measured using an ELISA reader, and the scavenging activity was calculated by the following equation. Scavenging rate (%) = (Acontrol − Asample)/Acontrol × 100% where Acontrol was the absorbance of the control and Asample was that of the tested sample.

Another assay deals with T2, α-glucosidase (Saccharomyces cerevisiae, UniProt P53341).
T2 construct: purchased Sigma-Aldrich
The assay is described as follows: Enzyme inhibition assay of α-glucosidase. Type of assay: biochemical, S. cerevisiae. As to the method:
The inhibitory activity of α-glucosidase was determined based on the previously reported method. The α-glucosidase solution was prepared with sodium phosphate buffer (pH 6.8, 0.1 M) and diluted to 1 U/mL. Subsequently, the tested sample solution (100 µL), diluted α-glucosidase solution (20 µL), and 0.53 mM p-NPG (380 µL) were mixed and incubated at 37 °C for 40 min. […] The activity was calculated by the following equation. α-Glucosidase inhibition (%) = (Acontrol − Asample)/Acontrol × 100% where Asample and Acontrol represent the absorbance values of the tested sample and control, respectively.

Assay [6] relates to NO production of LPS-induced RAW264.7 cells. The assay is described as follows: LPS-induced NO inhibition assay (Griess). Type of assay: cell-based, Murine. To be noted: Mus musculus, read-out: NO inhibition IC50. As to the method:
LPS-induced NO production of RAW264.7 cells was determined by Griess assay. The 100 μL quantity of cells was seeded in 96-well plates at an amount of 5 × 10^4 cells/well and incubated for 24 h. The cells were then treated with 100 ng/mL LPS with vehicle or different concentrations of the tested sample for 24 h. […] The absorbance was measured at 540 nm to calculate the NO inhibition. Sodium nitrite was used to generate a standard curve.
(Nitrite, measured by Griess reagent, commonly stands in for NO production.)

Assay [7] deals with iNOS expression in LPS-stimulated RAW264.7 cells. Description: Western blot analysis of iNOS expression. To be noted: compared to the LPS group (100 ng/mL LPS). Type of assay: cell-based, Murine. (In western blotting, separated proteins are transferred to a membrane and probed.)
[8] abbreviates: isolated components (Table 4), mM Trolox equivalents per g.
The mark [9] stands for this setting: solvent extracts, concentration causing 50% free radical scavenging.
Setting [10] is: 100 ng/mL LPS, 24 h, RAW264.7 cells.

Where two headings read alike, the source gives them in different places. Where only a bound is given, the exact number is not on record here.

T2 sequence (P53341 whole entry): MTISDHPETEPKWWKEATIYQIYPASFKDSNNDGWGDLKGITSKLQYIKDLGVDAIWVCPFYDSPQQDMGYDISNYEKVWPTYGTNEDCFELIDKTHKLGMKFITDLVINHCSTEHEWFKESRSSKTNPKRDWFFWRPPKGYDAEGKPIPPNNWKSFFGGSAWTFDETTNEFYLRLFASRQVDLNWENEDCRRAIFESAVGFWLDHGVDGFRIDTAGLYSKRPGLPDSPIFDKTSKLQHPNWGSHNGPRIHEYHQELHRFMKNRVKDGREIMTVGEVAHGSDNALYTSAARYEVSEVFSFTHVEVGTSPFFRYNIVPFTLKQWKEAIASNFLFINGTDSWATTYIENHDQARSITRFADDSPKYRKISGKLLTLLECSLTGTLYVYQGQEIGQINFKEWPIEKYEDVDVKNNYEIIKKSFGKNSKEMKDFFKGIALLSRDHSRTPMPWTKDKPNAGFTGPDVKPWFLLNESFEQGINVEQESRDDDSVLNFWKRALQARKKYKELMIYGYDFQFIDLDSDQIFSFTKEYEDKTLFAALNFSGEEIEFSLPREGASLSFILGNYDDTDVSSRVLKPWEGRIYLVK
T1 sequence (O42275 24-633): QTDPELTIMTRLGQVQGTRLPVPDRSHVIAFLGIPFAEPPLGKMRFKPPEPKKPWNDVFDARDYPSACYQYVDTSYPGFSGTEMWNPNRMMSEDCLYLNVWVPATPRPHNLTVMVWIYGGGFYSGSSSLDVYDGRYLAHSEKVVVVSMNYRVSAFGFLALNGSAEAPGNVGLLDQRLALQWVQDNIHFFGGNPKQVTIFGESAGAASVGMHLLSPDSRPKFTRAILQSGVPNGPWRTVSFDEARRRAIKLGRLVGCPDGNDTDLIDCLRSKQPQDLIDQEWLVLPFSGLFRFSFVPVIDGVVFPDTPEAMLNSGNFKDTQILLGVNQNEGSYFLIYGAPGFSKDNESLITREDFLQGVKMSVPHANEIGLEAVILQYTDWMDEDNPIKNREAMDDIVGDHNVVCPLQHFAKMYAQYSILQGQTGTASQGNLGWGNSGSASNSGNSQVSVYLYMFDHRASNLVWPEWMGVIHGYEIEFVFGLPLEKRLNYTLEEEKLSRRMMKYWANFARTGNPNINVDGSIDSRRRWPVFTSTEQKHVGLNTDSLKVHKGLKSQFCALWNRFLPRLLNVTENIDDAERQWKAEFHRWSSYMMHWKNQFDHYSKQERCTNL

Regarding `Cc1cc(C(C)(C)C)c(O)c(C(C)(C)C)c1` [BHT, reference compound], the “TE FRAP” value in assay [1] (setting [8]) is 3082.65 ± 213.69 ^B mM/g; in assay [1] (solvent extracts (Table 2), mM Trolox equivalents per gram), 3370.27 ± 256.53 ^D mM/g. Also, the EC50 in assay [2] is 881 ± 70.4 µM; in assay [3], 25.87 ± 0.01 µM. In assay [2] (setting [9]), the “SC50 DPPH” value was 230.05 ± 25.40 ^AB μg/mL. In addition, in assay [3] (setting [9]), the “SC50 ABTS” value is 29.95± 1.04 ^A μg/mL.
As usually defined, the IC50 is the concentration needed to halve the response being measured. With `O=C(/C=C/c1ccc(O)c(O)c1)O[C@@H]1C[C@](O)(C(=O)O)C[C@@H](O)[C@H]1O` [Chlorogenic acid, chlorogenic acid, reference compound], the half-inhibitory concentration (IC50) is 320 ± 4.13 µM in assay [4] (isolated components (Table 5)) and 386 µM in assay [4] (solvent extracts (Table 3)).
`C[C@H]1[C@H](C)CC[C@]2(C(=O)O)CC[C@]3(C)C(=CC[C@@H]4[C@@]5(C)C[C@@H](O)[C@H](O)C(C)(C)[C@@H]5CC[C@]43C)[C@H]12` [Corosolic acid (3), corosolic acid]: the EC50 in assay [5], in assay [2] and in assay [3] was greater than 400 µM in each case. Also, the “TE FRAP” value in assay [1] (setting [8]) is given as less than 1 mM/g. Besides, the half-inhibitory concentration (IC50) was found to be 13.8 ± 2.11 µM on α-glucosidase (isolated components (Table 5), read-out: IC50 α-Glucosidase) and 283 ± 17 µM in assay [4] (isolated components (Table 5)).
Regarding `O=c1cc(-c2ccc(O)c(O)c2)oc2cc(O[C@@H]3O[C@H](CO)[C@@H](O)[C@H](O)[C@H]3O)cc(O)c12` [Cynaroside, cynaroside, reference compound], the EC50 in assay [5] was determined as 38.3 ± 0.69 µM. Moreover, the “SC50 Superoxide” value in assay [5] (setting [9]) is recorded as 13.41 ± 2.56 ^A μg/mL.
In the case of `Oc1cc(O)c2c(c1)O[C@H](c1ccc(O)c(O)c1)[C@H](O)C2` [Epicatechin (5), epicatechin], the EC50 in assay [5] was 210 ± 9.46 µM; in assay [2] it was 56.9 ± 0.91 µM; in assay [3], 7.83 ± 0.34 µM. The figures for the IC50 (in assay [6] (setting [10]); against α-glucosidase; in assay [4] (isolated components (Table 5))) were greater than 50 µM, greater than 800 µM and 405 ± 26.3 µM, respectively. Also, the “TE FRAP” value in assay [1] (setting [8]) is on record as 1694.43 ± 21.45 ^A mM/g.
As to `CC1(C)CC[C@]2(C(=O)O)CC[C@]3(C)C(=CC[C@@H]4[C@@]5(C)CC[C@H](O)C(C)(C)[C@@H]5CC[C@]43C)[C@@H]2C1` [Oleanolic acid (1), oleanolic acid], the EC50 in assay [5], in assay [2] and in assay [3] was greater than 400 µM throughout. For the same compound, in assay [6] (RAW264.7, 24 h), the IC50 was greater than 50 µM. In addition, the “TE FRAP” value in assay [1] (setting [8]) is listed as less than 1 mM/g.
As for `O=c1c(O)c(-c2ccc(O)c(O)c2)oc2cc(O)cc(O)c12` [Quercetin, quercetin, reference compound], the half-inhibitory concentration (IC50) in assay [6] (setting [10]) came to 17.1 ± 1.63 µM.
For `C[C@@H]1O[C@@H](OC[C@H]2O[C@@H](Oc3c(-c4ccc(O)c(O)c4)oc4cc(O)cc(O)c4c3=O)[C@H](O)[C@@H](O)[C@@H]2O)[C@H](O)[C@H](O)[C@H]1O` [Rutin (6), rutin], the EC50 in assay [5] came to 6.69 ± 0.25 µM; in assay [2], 66.3 ± 1.68 µM; in assay [3], 20 ± 0.3 µM. Also, the IC50 in assay [6] (RAW264.7, 24 h) was determined as 29.5 ± 1.19 µM; in assay [4] (isolated components (Table 5)), 452 ± 12.9 µM. Also, the “TE FRAP” value in assay [1] (setting [8]) is 1609.10 ± 25.67 ^A mM/g.
For the compound `CC1CCC2(C(=O)O)CCC3(C)C(=CCC4C5(C)CC(O)C(O)C(C)(C)C5CCC43C)C2C1(C)O` (stereo not shown) [Tormentic acid (4), tormentic acid], the EC50 in assay [5], in assay [2] and in assay [3] was greater than 400 µM each time. In addition, the IC50 was greater than 50 µM in assay [6] (setting [10]), 320 ± 26.1 µM against α-glucosidase and 281 ± 8.55 µM in assay [4] (isolated components (Table 5)). Moreover, in assay [1] (setting [8]), the “TE FRAP” value is recorded as less than 1 mM/g.
In the case of `C[C@H]1[C@H](C)CC[C@]2(C(=O)O)CC[C@]3(C)C(=CC[C@@H]4[C@@]5(C)CC[C@H](O)C(C)(C)[C@@H]5CC[C@]43C)[C@H]12` [Ursolic acid (2), ursolic acid], the IC50 in assay [6] (setting [10]) was determined as 20.2 ± 1.46 µM; in assay [4] (isolated components (Table 5)), 311 ± 7.31 µM. For the same compound, the “Inhibition of iNOS expression” value in assay [7] (10 μM) amounted to 26.7%; in assay [7] (20 μM), 68.1%.
